This note sets out measurements from ChEMBL document CHEMBL1933025, “Discovery and optimization of thieno[2,3-d]pyrimidines as B-Raf inhibitors” (Bioorg Med Chem Lett, 2012).

The nature of the series: Oral bioavailability in CD IGS rat at 10 mg/kg measured after 26 hrs. In kind it is ADME, organism-based. Conditions: in vivo.

The compound `COc1cncc(-c2nc(NC(C)(C)CO)nc3sc(C(N)=O)c(N)c23)c1` yielded a bioavailability of 17%.

In turn, `NC(=O)c1sc2ncnc(-c3cccc(NC(=O)Nc4ccc(C(F)(F)F)cc4)c3)c2c1N` displayed a bioavailability of 0.3%.

Usually bioavailability stands for dose-corrected exposure relative to a reference, in per cent.
